Reference: patent US20240390335A1, “PHARMACEUTICAL COMPOSITION CONTAINING BETA-LACTAM COMPOUND AND USE THEREOF” (priority 2021, published 2024)
Like-named read-outs stand apart in the source and are kept apart here.

Legend:
Acinetobacter baumannii [1] = experiment: MIC assay of individual compounds (microdilution, CLSI/NCCLS); assay type: cell-based; conditions: individual compound, read-out: MIC
Procedure: (§1) Mueller-Hinton broth (MH broth) medium, Trypticase Soy Broth (TSB Broth) medium, purchased from BD Difco, Cockeysville, MD, USA; • 96-well plate: Corning Costar, Cambridge, MA, USA; • Test method: the antibacterial activities were tested by the microdilution method according to the CLSI/NCCLS standard.
(§2) (1) Preparation of the test samples: 4 mg of each sample was taken, and was prepared into a test solution at 1,024 μg/mL with MH broth, and the test solution was diluted two-fold in a 96-well plate to prepare solutions of a series of gradient concentrations, the volume in each well being 90 μL.
(§3) (2) Preparation of a bacteria solution: The test strains were amplified by Trypticase Soy Broth (TSB Broth) according to the CLSI/NCCLS standard.
(§4) (3) Addition of the samples: a bacteria solution with a concentration of 6×10^5 cfu/mL was prepared, and 10 μL of the bacteria solution was pipetted into each well of the 96-well plate. Three parallel experiments were set up for each concentration and the results were averaged. To the negative control group, 10 μL of the bacterial solution and 90 μL MH broth were added.
(§5) (4) Incubation: the 96-well plate was placed in a 37° C. constant-temperature incubator for 18 hours, and the growth of the strains was observed. The drug concentration in the well with no microbial growth was recorded as the MIC.

Escherichia coli [2] = experiment: as above; assay type: cell-based; conditions: individual compound, read-out: MIC
Procedure: as §1, §2, §3, §4, §5

Pseudomonas aeruginosa [3] = experiment: as above; assay type: cell-based; conditions: individual compound, read-out: MIC
Procedure: as §1, §2, §3, §4, §5

Acinetobacter baumannii [4] = experiment: Combined in vitro use, checkerboard dilution method; assay type: cell-based
Procedure: (§6) Mueller-Hinton broth (MH broth) medium, Trypticase Soy Broth (TSB Broth) medium, purchased from BD Difco, Cockeysville, MD, USA; • 96-well plate: Corning Costar, Cambridge, MA, USA; • Test method: the checkerboard dilution method was used for determination.
(§7) (1) Preparation of the test samples: 4 mg of each sample was taken and was prepared into a test solution at 2,048 μg/mL with MH broth, and the test solution was diluted two-fold in a 96-well plate to prepare solutions of a series of gradient concentrations.
as §3
(§8) (3) Addition of the samples: 10 μL of the bacteria solution with a concentration of 6×10^5 CFU/mL was pipetted into each well of the 96-well plate. Each well contained the antibacterial drugs (the compound of formula (I-1) and the compound of formula (I-2)) diluted two-fold with broth and the aforementioned lactamase inhibitor or efflux pump inhibitor. […] The samples were mixed thoroughly. Three parallel experiments were set up for each concentration and the results were averaged. To the negative control group, 10 μL of the bacterial solution and 90 μL MH broth were added.
(§9) (4) Incubation: the 96-well plate was placed in a 37° C. constant-temperature incubator for 18 hours, and the growth of the strains was observed.
(§10) (5) Calculation: The in vitro effect of each drug-inhibitor combination was analyzed by calculating the FICI value: FICI=(MIC of drug A in the combination/MIC of drug A alone)+ (MIC of drug B in the combination/MIC of drug B alone).
(§11) In order to ensure the reliability of the data, three repeated tests were conducted on different dates and the results were averaged.

Enterobacter cloacae = experiment: as above; assay type: cell-based; conditions: compound of formula (I-1) combined with avibactam; Enterobacter cloacae ATCC 2468
Procedure: as §6, §7, §3, §8, §9, §10, §11

Escherichia coli [5] = experiment: as above; assay type: cell-based
Procedure: as §6, §7, §3, §8, §9, §10, §11

Klebsiella pneumoniae = experiment: as above; assay type: cell-based
Procedure: as §6, §7, §3, §8, §9, §10, §11

Pseudomonas aeruginosa [6] = experiment: as above; assay type: cell-based
Procedure: as §6, §7, §3, §8, §9, §10, §11

[7] = tested on: Klebsiella pneumoniae ATCC BAA2146 (NDM-1); experiment: Protective effect on mice systemically infected (survival within 7 days); assay type: in vivo, ICR mice; conditions: for Number of animals survived: 5 mice
Procedure: ICR mice (half male and half female) with healthy appearance and a weight of 18 to 22 g were used. The mice were randomly grouped, with 5 mice (either male or female) in each dose group.
To the mice infected intraperitoneally with NDM-1-producing Klebsiella pneumoniae (at a dose of 3.0×10^6 CFU), drugs were administered once through the tail vein at certain doses (see Table 5) at 1 h and 6 h respectively after the infection for a total of two administrations, with the volume of the drugs administered being 10 mL/kg. The survival of the animals in each group was observed within 7 days, and the survival rates of the mice were calculated. The control group was not given any drugs, and given only physiological saline, and the seven-day survival rate of the mice was 0.
The protective effects of the compound of formula (I-1) administered alone and in combination with avibactam on mice systemically infected with Klebsiella pneumoniae ATCC BAA2146 (NDM-1) are shown in Table 5.

[8] = individual compound 16 mg/kg i.v. (tail vein) at 1 h and 6 h after infection
[9] = individual compound 32 mg/kg i.v. (tail vein) at 1 h and 6 h after infection

CC1(C)[C@H](NC(=O)/C(=N\OC2(C(=O)O)CC2)c2csc(N)n2)C(=O)N1OS(=O)(=O)O [Compound of formula (I-1)]
60%: Survival rate of animals (%) [7, 9]
3: Number of animals survived [7, 9]
32 µg/mL: MIC (Acinetobacter baumannii [1]; Acinetobacter baumannii CCPM(A)-P-101633(CRAB)) | MIC (Pseudomonas aeruginosa [3]; Pseudomonas aeruginosa CCPM(A)-P-091626(CRPA)) | MIC in combination (Pseudomonas aeruginosa [6]; compound of formula (I-1) combined with berberine, Pseudomonas aeruginosa CCPM(A)-P-091626(CRPA))
4 µg/mL: MIC in combination (Acinetobacter baumannii [4]; compound of formula (I-1) combined with berberine, Acinetobacter baumannii ATCC 17978) | MIC in combination (Acinetobacter baumannii [4]; compound of formula (I-1) combined with berberine, Acinetobacter baumannii ATCC 19606) | MIC in combination (Acinetobacter baumannii [4]; compound of formula (I-1) combined with conessine, Acinetobacter baumannii ATCC 19606)
8 µg/mL: MIC in combination (Pseudomonas aeruginosa [6]; compound of formula (I-1) combined with PAβN, Pseudomonas aeruginosa CCPM(A)-P-091626(CRPA))
2 µg/mL: MIC (Escherichia coli [2]; Escherichia coli CCPM(A)-P-071301) | MIC in combination (Pseudomonas aeruginosa [6]; compound of formula (I-1) combined with PAβN, Pseudomonas aeruginosa ATCC27853) | MIC in combination (Pseudomonas aeruginosa [6]; compound of formula (I-1) combined with PAβN, Pseudomonas aeruginosa PAO1(CCPM(A)-P-09000032))
0.5 µg/mL: MIC in combination (Escherichia coli [5]; compound of formula (I-1) combined with vaborbactam, Escherichia coli CCPM(A)-P-071301) | MIC in combination (Klebsiella pneumoniae; compound of formula (I-1) combined with avibactam, Klebsiella pneumoniae ATCC 2146) | MIC in combination (Klebsiella pneumoniae; compound of formula (I-1) combined with avibactam, Klebsiella pneumoniae ATCC 700603) | MIC in combination (Klebsiella pneumoniae; compound of formula (I-1) combined with avibactam, Klebsiella pneumoniae CCPM(A)-081705) | MIC in combination (Klebsiella pneumoniae; compound of formula (I-1) combined with avibactam, Klebsiella pneumoniae CCPM(A)-081715) | MIC in combination (Klebsiella pneumoniae; compound of formula (I-1) combined with avibactam, Klebsiella pneumoniae CCPM(A)-081729) | MIC in combination (Klebsiella pneumoniae; compound of formula (I-1) combined with relebactam, Klebsiella pneumoniae ATCC 2146) | MIC in combination (Klebsiella pneumoniae; compound of formula (I-1) combined with vaborbactam, Klebsiella pneumoniae ATCC 700603) | MIC in combination (Klebsiella pneumoniae; compound of formula (I-1) combined with vaborbactam, Klebsiella pneumoniae CCPM(A)-0814R33)
1: Number of animals survived [7, 8]
eight-fold: reduction of MIC values on combination (Pseudomonas aeruginosa [6]; combined with PAβN, Pseudomonas aeruginosa ATCC27853 and PAO1 (CCPM(A)-P-09000032))
four-fold: reduction of MIC values on combination (Acinetobacter baumannii [4]; combined with berberine, Acinetobacter baumannii ATCC19606 and ATCC17978) | reduction of MIC values on combination (Acinetobacter baumannii [4]; combined with conessine, Acinetobacter baumannii ATCC19606) | reduction of MIC value on combination (Pseudomonas aeruginosa [6]; combined with PAβN, Pseudomonas aeruginosa CCPM(A)-P-091626 (CRPA))
0.125 µg/mL: MIC in combination (Escherichia coli [5]; compound of formula (I-1) combined with avibactam, Escherichia coli ATCC 2469) | MIC in combination (Klebsiella pneumoniae; compound of formula (I-1) combined with relebactam, Klebsiella pneumoniae ATCC 700603)
16 µg/mL: MIC (Acinetobacter baumannii [1]; ATCC17978, Acinetobacter baumannii ATCC 17978) | MIC (Acinetobacter baumannii [1]; ATCC19606, Acinetobacter baumannii ATCC 19606) | MIC (Pseudomonas aeruginosa [3]; Pseudomonas aeruginosa ATCC27853) | MIC (Pseudomonas aeruginosa [3]; Pseudomonas aeruginosa PAO1(CCPM(A)-P-09000032)) | MIC in combination (Acinetobacter baumannii [4]; compound of formula (I-1) combined with PAβN, Acinetobacter baumannii ATCC 17978) | MIC in combination (Acinetobacter baumannii [4]; compound of formula (I-1) combined with PAβN, Acinetobacter baumannii ATCC 19606) | MIC in combination (Acinetobacter baumannii [4]; compound of formula (I-1) combined with PAβN, Acinetobacter baumannii CCPM(A)-P-101633(CRAB)) | MIC in combination (Acinetobacter baumannii [4]; compound of formula (I-1) combined with berberine, Acinetobacter baumannii CCPM(A)-P-101633(CRAB)) | MIC in combination (Pseudomonas aeruginosa [6]; compound of formula (I-1) combined with berberine, Pseudomonas aeruginosa ATCC27853) | MIC in combination (Pseudomonas aeruginosa [6]; compound of formula (I-1) combined with berberine, Pseudomonas aeruginosa PAO1(CCPM(A)-P-09000032)) | MIC in combination (Pseudomonas aeruginosa [6]; compound of formula (I-1) combined with conessine, Pseudomonas aeruginosa PAO1(CCPM(A)-P-09000032))
0.25 µg/mL: MIC in combination (Escherichia coli [5]; compound of formula (I-1) combined with avibactam, Escherichia coli CCPM(A)-P-071301) | MIC in combination (Klebsiella pneumoniae; compound of formula (I-1) combined with avibactam, Klebsiella pneumoniae CCPM(A)-0814R18) | MIC in combination (Klebsiella pneumoniae; compound of formula (I-1) combined with avibactam, Klebsiella pneumoniae CCPM(A)-0814R33) | MIC in combination (Klebsiella pneumoniae; compound of formula (I-1) combined with avibactam, Klebsiella pneumoniae CCPM(A)-081716)
20%: Survival rate of animals (%) [7, 8]
1 µg/mL: MIC (Escherichia coli [2]; ATCC2469, Escherichia coli ATCC 2469) | MIC in combination (Enterobacter cloacae) | MIC in combination (Klebsiella pneumoniae; compound of formula (I-1) combined with avibactam, Klebsiella pneumoniae CCPM(A)-0817R61)
